{"source": "the CheMixHub viscosity set", "experiment": "xn = mol fraction of the nth substance listed", "note": "± gives the uncertainty stated by the source."}
{"smiles": "CCCCCCCCCCCCCC", "note": "+ CC(C)CC(C)(C)C", "values": [{"measurement": "viscosity", "setting": "298.15 K, 101 kPa, x2 = 0.1084", "value": "1.813 ± 0.018", "unit": "mPa·s"}, {"measurement": "viscosity", "setting": "298.15 K, 101 kPa, x2 = 0.1551", "value": "1.724 ± 0.017", "unit": "mPa·s"}, {"measurement": "viscosity", "setting": "298.15 K, 101 kPa, x2 = 0.1801", "value": "1.702 ± 0.017", "unit": "mPa·s"}, {"measurement": "viscosity", "setting": "298.15 K, 101 kPa, x2 = 0.2807", "value": "1.483 ± 0.015", "unit": "mPa·s"}, {"measurement": "viscosity", "setting": "298.15 K, 101 kPa, x2 = 0.4042", "value": "1.265 ± 0.013", "unit": "mPa·s"}, {"measurement": "viscosity", "setting": "298.15 K, 101 kPa, x2 = 0.5162", "value": "1.086 ± 0.011", "unit": "mPa·s"}, {"measurement": "viscosity", "setting": "298.15 K, 101 kPa, x2 = 0.6304", "value": "0.9193 ± 0.0092", "unit": "mPa·s"}, {"measurement": "viscosity", "setting": "298.15 K, 101 kPa, x2 = 0.7095", "value": "0.8085 ± 0.0081", "unit": "mPa·s"}, {"measurement": "viscosity", "setting": "298.15 K, 101 kPa, x2 = 0.7868", "value": "0.7168 ± 0.0072", "unit": "mPa·s"}, {"measurement": "viscosity", "setting": "298.15 K, 101 kPa, x2 = 0.8111", "value": "0.6841 ± 0.0069", "unit": "mPa·s"}, {"measurement": "viscosity", "setting": "298.15 K, 101 kPa, x2 = 0.8616", "value": "0.6216 ± 0.0063", "unit": "mPa·s"}, {"measurement": "viscosity", "setting": "298.15 K, 101 kPa, x2 = 0.9166", "value": "0.5603 ± 0.0057", "unit": "mPa·s"}, {"measurement": "viscosity", "setting": "298.15 K, 101 kPa, x2 = 0.9516", "value": "0.5263 ± 0.0053", "unit": "mPa·s"}, {"measurement": "viscosity", "setting": "298.15 K, 101 kPa, x2 = 0.9768", "value": "0.5023 ± 0.0051", "unit": "mPa·s"}]}
{"smiles": "ClC(Cl)=C(Cl)Cl", "note": "+ CC(C)CCO", "values": [{"measurement": "viscosity", "setting": "303.15 K, 101.33 kPa, x1 = 0.0975", "value": "2.635 ± 0.017", "unit": "mPa·s"}, {"measurement": "viscosity", "setting": "303.15 K, 101.33 kPa, x1 = 0.2467", "value": "2.045 ± 0.013", "unit": "mPa·s"}, {"measurement": "viscosity", "setting": "303.15 K, 101.33 kPa, x1 = 0.3283", "value": "1.773 ± 0.011", "unit": "mPa·s"}, {"measurement": "viscosity", "setting": "303.15 K, 101.33 kPa, x1 = 0.4163", "value": "1.524 ± 0.01", "unit": "mPa·s"}, {"measurement": "viscosity", "setting": "303.15 K, 101.33 kPa, x1 = 0.5256", "value": "1.293 ± 0.009", "unit": "mPa·s"}, {"measurement": "viscosity", "setting": "303.15 K, 101.33 kPa, x1 = 0.6182", "value": "1.148 ± 0.008", "unit": "mPa·s"}, {"measurement": "viscosity", "setting": "303.15 K, 101.33 kPa, x1 = 0.7334", "value": "1.013 ± 0.007", "unit": "mPa·s"}, {"measurement": "viscosity", "setting": "303.15 K, 101.33 kPa, x1 = 0.8214", "value": "0.934 ± 0.006", "unit": "mPa·s"}, {"measurement": "viscosity", "setting": "303.15 K, 101.33 kPa, x1 = 0.9161", "value": "0.864 ± 0.006", "unit": "mPa·s"}]}
{"smiles": "CC(C)CCl", "note": "+ CC(C)CO", "values": [{"measurement": "viscosity", "setting": "298.15 K, 101.33 kPa, x1 = 0.1154", "value": "2.364 ± 0.019", "unit": "mPa·s"}, {"measurement": "viscosity", "setting": "298.15 K, 101.33 kPa, x1 = 0.2046", "value": "1.728 ± 0.015", "unit": "mPa·s"}, {"measurement": "viscosity", "setting": "298.15 K, 101.33 kPa, x1 = 0.3086", "value": "1.287 ± 0.012", "unit": "mPa·s"}, {"measurement": "viscosity", "setting": "298.15 K, 101.33 kPa, x1 = 0.4017", "value": "1.019 ± 0.01", "unit": "mPa·s"}, {"measurement": "viscosity", "setting": "298.15 K, 101.33 kPa, x1 = 0.4943", "value": "0.8243 ± 0.0086", "unit": "mPa·s"}, {"measurement": "viscosity", "setting": "298.15 K, 101.33 kPa, x1 = 0.6102", "value": "0.6718 ± 0.0075", "unit": "mPa·s"}, {"measurement": "viscosity", "setting": "298.15 K, 101.33 kPa, x1 = 0.7057", "value": "0.5775 ± 0.0068", "unit": "mPa·s"}, {"measurement": "viscosity", "setting": "298.15 K, 101.33 kPa, x1 = 0.8002", "value": "0.5104 ± 0.0064", "unit": "mPa·s"}, {"measurement": "viscosity", "setting": "298.15 K, 101.33 kPa, x1 = 0.8978", "value": "0.4593 ± 0.0061", "unit": "mPa·s"}, {"measurement": "viscosity", "setting": "313.15 K, 101.33 kPa, x1 = 0.1154", "value": "1.56 ± 0.013", "unit": "mPa·s"}, {"measurement": "viscosity", "setting": "313.15 K, 101.33 kPa, x1 = 0.2046", "value": "1.191 ± 0.01", "unit": "mPa·s"}, {"measurement": "viscosity", "setting": "313.15 K, 101.33 kPa, x1 = 0.3086", "value": "0.9221 ± 0.0087", "unit": "mPa·s"}, {"measurement": "viscosity", "setting": "313.15 K, 101.33 kPa, x1 = 0.4017", "value": "0.7582 ± 0.0076", "unit": "mPa·s"}, {"measurement": "viscosity", "setting": "313.15 K, 101.33 kPa, x1 = 0.4943", "value": "0.6325 ± 0.0068", "unit": "mPa·s"}, {"measurement": "viscosity", "setting": "313.15 K, 101.33 kPa, x1 = 0.6102", "value": "0.5324 ± 0.0061", "unit": "mPa·s"}, {"measurement": "viscosity", "setting": "313.15 K, 101.33 kPa, x1 = 0.7057", "value": "0.4679 ± 0.0057", "unit": "mPa·s"}, {"measurement": "viscosity", "setting": "313.15 K, 101.33 kPa, x1 = 0.8002", "value": "0.4215 ± 0.0054", "unit": "mPa·s"}, {"measurement": "viscosity", "setting": "313.15 K, 101.33 kPa, x1 = 0.8978", "value": "0.3866 ± 0.0052", "unit": "mPa·s"}]}
{"smiles": "ClC(Cl)=C(Cl)Cl", "note": "+ CC(C)CO", "values": [{"measurement": "viscosity", "setting": "303.15 K, 101.33 kPa, x1 = 0.1124", "value": "2.28 ± 0.014", "unit": "mPa·s"}, {"measurement": "viscosity", "setting": "303.15 K, 101.33 kPa, x1 = 0.2157", "value": "1.855 ± 0.012", "unit": "mPa·s"}, {"measurement": "viscosity", "setting": "303.15 K, 101.33 kPa, x1 = 0.3156", "value": "1.552 ± 0.01", "unit": "mPa·s"}, {"measurement": "viscosity", "setting": "303.15 K, 101.33 kPa, x1 = 0.4057", "value": "1.353 ± 0.009", "unit": "mPa·s"}, {"measurement": "viscosity", "setting": "303.15 K, 101.33 kPa, x1 = 0.5099", "value": "1.182 ± 0.008", "unit": "mPa·s"}, {"measurement": "viscosity", "setting": "303.15 K, 101.33 kPa, x1 = 0.5996", "value": "1.077 ± 0.007", "unit": "mPa·s"}, {"measurement": "viscosity", "setting": "303.15 K, 101.33 kPa, x1 = 0.7145", "value": "0.977 ± 0.007", "unit": "mPa·s"}, {"measurement": "viscosity", "setting": "303.15 K, 101.33 kPa, x1 = 0.8032", "value": "0.918 ± 0.006", "unit": "mPa·s"}, {"measurement": "viscosity", "setting": "303.15 K, 101.33 kPa, x1 = 0.908", "value": "0.857 ± 0.006", "unit": "mPa·s"}]}
{"smiles": "O=[N+]([O-])c1ccccc1", "note": "+ CC(C)CO", "values": [{"measurement": "viscosity", "setting": "298.15 K, 101.33 kPa, x1 = 0.063", "value": "2.804 ± 0.13", "unit": "mPa·s"}, {"measurement": "viscosity", "setting": "298.15 K, 101.33 kPa, x1 = 0.1521", "value": "2.416 ± 0.11", "unit": "mPa·s"}, {"measurement": "viscosity", "setting": "298.15 K, 101.33 kPa, x1 = 0.2051", "value": "2.228 ± 0.1", "unit": "mPa·s"}, {"measurement": "viscosity", "setting": "298.15 K, 101.33 kPa, x1 = 0.2864", "value": "2.054 ± 0.094", "unit": "mPa·s"}, {"measurement": "viscosity", "setting": "298.15 K, 101.33 kPa, x1 = 0.376", "value": "1.884 ± 0.087", "unit": "mPa·s"}, {"measurement": "viscosity", "setting": "298.15 K, 101.33 kPa, x1 = 0.4746", "value": "1.811 ± 0.084", "unit": "mPa·s"}, {"measurement": "viscosity", "setting": "298.15 K, 101.33 kPa, x1 = 0.6038", "value": "1.755 ± 0.082", "unit": "mPa·s"}, {"measurement": "viscosity", "setting": "298.15 K, 101.33 kPa, x1 = 0.7066", "value": "1.701 ± 0.08", "unit": "mPa·s"}, {"measurement": "viscosity", "setting": "298.15 K, 101.33 kPa, x1 = 0.8442", "value": "1.679 ± 0.079", "unit": "mPa·s"}, {"measurement": "viscosity", "setting": "303.15 K, 101.33 kPa, x1 = 0.063", "value": "2.423 ± 0.11", "unit": "mPa·s"}, {"measurement": "viscosity", "setting": "303.15 K, 101.33 kPa, x1 = 0.1521", "value": "2.072 ± 0.095", "unit": "mPa·s"}, {"measurement": "viscosity", "setting": "303.15 K, 101.33 kPa, x1 = 0.2051", "value": "1.956 ± 0.09", "unit": "mPa·s"}, {"measurement": "viscosity", "setting": "303.15 K, 101.33 kPa, x1 = 0.2864", "value": "1.819 ± 0.084", "unit": "mPa·s"}, {"measurement": "viscosity", "setting": "303.15 K, 101.33 kPa, x1 = 0.376", "value": "1.677 ± 0.078", "unit": "mPa·s"}, {"measurement": "viscosity", "setting": "303.15 K, 101.33 kPa, x1 = 0.4746", "value": "1.596 ± 0.075", "unit": "mPa·s"}, {"measurement": "viscosity", "setting": "303.15 K, 101.33 kPa, x1 = 0.6038", "value": "1.538 ± 0.072", "unit": "mPa·s"}, {"measurement": "viscosity", "setting": "303.15 K, 101.33 kPa, x1 = 0.7066", "value": "1.495 ± 0.071", "unit": "mPa·s"}, {"measurement": "viscosity", "setting": "303.15 K, 101.33 kPa, x1 = 0.8442", "value": "1.517 ± 0.072", "unit": "mPa·s"}]}
